Experimental findings from patent publication US8557816B2, “Aurora kinase modulators and method of use” (Amgen Inc., priority 2007, dated 2013) are described below.

Test [1] concerns the target T1, AuroraB (Homo sapiens, UniProt Q96GD4).
T1 construct: 20 μL of AuroraB FL H is for a final volume of 41 μL; His
Kind of test: AuroraB Homogeneous Time Resolved Fluorescent (HTRF) kinase assay. As to conditions: average; read-out: AurB_IC50_IP (uM Avg). The test is classed as biochemical. Summed up: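 Read-out is time-resolved FRET between europium anti-phospho-H3 antibody and streptavidin-APC, added in EDTA buffer to stop the reaction and equilibrated about 60 min (ex 320, em 615 and 655 nm). Preceding reaction: ~90 min, full-length enzyme, ATP, 0.1 μM biotin-Histone H3 substrate, Mg/Mn HEPES buffer pH 7.5.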
On the technique in general: In TR-FRET formats the signal depends on donor and acceptor labels being close together.

The target of test [2] is T2, AuroraA-TPX2 (Homo sapiens, UniProt O14965).
T2 construct: 20 μL of AuroraA-TPX2 KD GST for a final volume of about 41 μL; GST
T2 sequence (O14965 133-383 limits assumed): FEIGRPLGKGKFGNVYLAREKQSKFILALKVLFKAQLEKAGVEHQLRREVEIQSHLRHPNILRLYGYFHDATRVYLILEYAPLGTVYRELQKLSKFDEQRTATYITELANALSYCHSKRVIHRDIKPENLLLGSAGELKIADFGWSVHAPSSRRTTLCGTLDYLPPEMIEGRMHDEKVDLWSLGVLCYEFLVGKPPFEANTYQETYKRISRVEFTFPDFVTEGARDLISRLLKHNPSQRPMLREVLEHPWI
T2 sequence (Q9ULW0 1-43 partner limits assumed): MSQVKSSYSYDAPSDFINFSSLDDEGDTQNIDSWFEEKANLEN
The test is described as follows: AuroraA-TPX2 Homogeneous Time Resolved Fluorescent (HTRF) kinase assay. The test is classed as biochemical. Conditions: average; read-out: AurA_IC50_IP (uM Avg). Summed up: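 HTRF read-out (Eu 615 nm to APC 655 nm) of phosphorylated biotin-PLK, detected with 0.02 nM europium anti-phosphoPLK antibody and 0.0005 mg/mL SA-APC after overnight equilibration.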

Molecules are shown by their SMILES.

T1 sequence (Q96GD4 whole entry): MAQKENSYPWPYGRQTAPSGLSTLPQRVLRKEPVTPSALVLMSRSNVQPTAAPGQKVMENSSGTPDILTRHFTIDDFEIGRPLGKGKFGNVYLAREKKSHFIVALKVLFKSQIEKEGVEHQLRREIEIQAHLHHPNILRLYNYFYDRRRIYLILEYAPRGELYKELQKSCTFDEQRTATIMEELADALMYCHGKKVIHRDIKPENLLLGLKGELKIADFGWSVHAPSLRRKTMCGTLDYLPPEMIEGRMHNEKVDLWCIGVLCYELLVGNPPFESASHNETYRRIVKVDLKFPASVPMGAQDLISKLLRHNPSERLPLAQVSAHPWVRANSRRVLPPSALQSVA

On to `c1ccc(-c2nnc(Nc3ccc(Sc4ccnc5cccnc45)cc3)c3ccccc23)cc1` [compound 309, N-(4-(1,5-naphthyridin-4-ylthio)phenyl)-4-phenyl-1-phthalazinamine], for which the IC50 in test [1] worked out at 0.003 µM; in test [2], 0.054 µM.

With `c1ccc(-c2nnc(Nc3ccc(Sc4ccnc5ccccc45)cc3)c3ccccc23)cc1` [compound 310, 4-phenyl-N-(4-(4-quinolinylthio)phenyl)-1-phthalazinamine], the IC50 was 0.017 µM in test [1] and 0.209 µM in test [2].

For `Cc1csc(-c2nnc(Nc3ccc(Sc4ccnc5cc(C(=O)N6CCOCC6)sc45)cc3)c3ccccc23)c1` [compound 312, (7-(4-(4-(4-methylthiophen-2-yl)phthalazin-1-ylamino)phenylthio)thieno[3,2-b]pyridin-2-yl)(morpholino)methanone], the IC50 stood at 0.03 µM in test [1] and 0.022 µM in test [2].

For the molecule `O=C(c1cc2nccc(Sc3ccc(Nc4nnc(-c5ccccc5)c5ccccc45)cc3)c2s1)N1CCOCC1` [compound 313, morpholino(7-(4-(4-phenylphthalazin-1-ylamino)phenylthio)thieno[3,2-b]pyridin-2-yl)methanone], the IC50 in test [1] stood at 0.056 µM; in test [2], 0.091 µM.

On to `O=C(c1cc2nccc(Sc3ccc(Nc4nnc(-c5ccc(Cl)cc5)c5ccccc45)cc3)c2s1)N1CCOCC1` [compound 314, (7-(4-(4-(4-chlorophenyl)phthalazin-1-ylamino)phenylthio)thieno[3,2-b]pyridin-2-yl)(morpholino)methanone], for which the IC50 in test [1] was determined as 0.057 µM; in test [2], 0.058 µM.

`COc1ccc2nccc(Sc3ccc(Nc4nnc(-c5ccc(Cl)cc5)c5ccccc45)cc3)c2c1` [compound 315, 4-(4-chlorophenyl)-N-(4-(6-methoxyquinolin-4-ylthio)phenyl)phthalazin-1-amine]: the IC50 in test [1] was 0.031 µM; in test [2], 0.036 µM.

As for `COc1cnc2c(Oc3ccc(Nc4nnc(-c5cc(Cl)cs5)c5ccccc45)cc3)ccnc2c1` [compound 316, 4-(4-chloro-2-thienyl)-N-(4-((7-(methyloxy)-1,5-naphthyridin-4-yl)oxy)phenyl)-1-phthalazinamine], the IC50 came out at 0.023 µM in test [1] and 0.014 µM in test [2].

On to `COc1cnc2c(Oc3ccc(Nc4nnc(-c5cccc(C)c5)c5ccccc45)cc3)ccnc2c1` [compound 317, N-(4-((7-(methyloxy)-1,5-naphthyridin-4-yl)oxy)phenyl)-4-(3-methylphenyl)-1-phthalazinamine], for which the IC50 in test [1] was 0.015 µM; in test [2], 0.018 µM.

For `COc1ccc2c(Cc3ccc(Nc4nnc(-c5ccccc5)c5ccccc45)cc3)ccnc2c1` [compound 319, N-(4-((7-(methyloxy)-4-quinolinyl)methyl)phenyl)-4-phenyl-1-phthalazinamine], the IC50 in test [1] was 0.02 µM; in test [2], 0.176 µM.

On to `CCc1cc(N2CC[C@H]3CCCC[C@@H]3C2)nnc1Nc1ccc(Oc2ccnc3cc(OC)cnc23)cc1` [compound 320, 4-ethyl-N-(4-((7-(methyloxy)-1,5-naphthyridin-4-yl)oxy)phenyl)-6-((4aR,8aS)-octahydro-2(1H)-isoquinolinyl)-3-pyridazinamine], for which the IC50 in test [1] is 0.067 µM; in test [2], 0.112 µM.

Consider `CCc1cc(N2CCCCC2)nnc1Nc1ccc(Oc2ccnc3cc(OC)cnc23)cc1` [compound 321, 4-ethyl-N-(4-((7-(methyloxy)-1,5-naphthyridin-4-yl)oxy)phenyl)-6-(1-piperidinyl)-3-pyridazinamine], for which the IC50 in test [1] was determined as 0.051 µM; in test [2], 0.304 µM.

For the molecule `CCc1cc(-c2ccc(C)cc2)nnc1Nc1ccc(Sc2ccnc3cc(OC)cnc23)cc1` [compound 322, 4-ethyl-N-(4-((7-(methyloxy)-1,5-naphthyridin-4-yl)thio)phenyl)-6-(4-methylphenyl)-3-pyridazinamine], the IC50 in test [1] stood at 0.032 µM; in test [2], 0.033 µM.
